Assays:
[1] = target: T1, 5-HT2A receptor (Homo sapiens, UniProt P28223); details: background statement, no values; cited from earlier work
[2] = target: T1, 5-HT2A receptor; details: background statement, no values; cited from earlier work; remark: listed apart in the source
[3] = Tabletting in a cam press: formation of form B under mechanical pressure, estimated by X-ray powder diffraction; type: physicochemical
Description: The pressures here are preferably those which usually prevail during tablet production if ram forces of between about 2 and 16 kN, in particular between 6 and 16 kN, are used as the maximum pressing forces.
In an EK0 cam press from Korsch (Berlin, Germany), year of construction 2002, tablets are produced at a rate of 50 units per minute using a 7 mm, round, flat ram with bevel.
The tablets contain 50 mg of EMD281014 in crystal form A, 93.2 mg of lactose monohydrate, 4.5 mg of croscarmellose and 2.3 mg of magnesium stearate. The ingredients are dry-mixed and compressed directly.
The proportion of form B is estimated by comparison of the X-ray powder diffraction patterns of the mixtures (FIGS. 3 and 4) with the diffraction patterns of the pure forms (FIGS. 1 and 2).

[4] = Storage of form B at elevated temperature, conversion into form A; type: physicochemical; details: storage at 105° C. for 24 hours
Description: Furthermore, a very simple method for the preparation of form A from form B has been found. To this end, form B merely needs to be stored at elevated temperatures of between about 75 and about 225° C., preferably 90 and 160° C. and particularly preferably between 110 and 140° C. Depending on the temperature and the storage duration, different degrees of conversion can be achieved. Depending on the target degree of conversion, the storage duration at a given temperature can be between a few minutes and several days. In order to achieve high degrees of conversion, […] is preferably stored for from several hours to days. Suitable storage times are, for example, 4, 8, 12, 16, 20, 24, 36 or 48 hours.

[5] = Stirring a suspension of form A in MTBE, form B estimated by X-ray powder diffraction; type: physicochemical
[6] = cam press, contact time 310 ms, maximum pressing force 16 kN

T1 sequence (P28223 whole entry): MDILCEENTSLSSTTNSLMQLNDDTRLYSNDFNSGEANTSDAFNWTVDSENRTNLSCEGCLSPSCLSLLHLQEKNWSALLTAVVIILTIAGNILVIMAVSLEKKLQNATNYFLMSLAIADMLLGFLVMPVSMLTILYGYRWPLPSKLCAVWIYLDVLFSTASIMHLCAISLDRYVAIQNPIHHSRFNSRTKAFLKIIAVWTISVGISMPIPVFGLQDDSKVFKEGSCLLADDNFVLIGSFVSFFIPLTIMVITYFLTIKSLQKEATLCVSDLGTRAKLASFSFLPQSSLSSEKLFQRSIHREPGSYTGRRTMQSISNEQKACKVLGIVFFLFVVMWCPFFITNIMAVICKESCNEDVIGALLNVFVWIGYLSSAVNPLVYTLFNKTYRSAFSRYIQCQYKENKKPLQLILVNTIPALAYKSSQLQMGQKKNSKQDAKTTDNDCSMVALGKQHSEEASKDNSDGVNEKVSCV

Compound: Cl.N#Cc1c[nH]c2c(C(=O)N3CCN(CCc4ccc(F)cc4)CC3)cccc12 [EMD281014, (3-cyano-1H-indol-7-yl)-[4-(4-fluorophenethyl)piperazin-1-yl]methanone, hydrochloride]
- 5-HT2A receptor-antagonistic properties [1]: 5-HT2A receptor-antagonistic properties
- affinity to 5-HT2A receptors [2]: strong affinity

Compound: Cl.N#Cc1c[nH]c2c(C(=O)N3CCN(CCc4ccc(F)cc4)CC3)cccc12 [EMD281014 form B, (3-cyano-1H-indol-7-yl)-[4-(4-fluorophenethyl)piperazin-1-yl]methanone, hydrochloride]
- stability under the tablet production conditions ([3]; X-ray diffraction patterns of tablets produced from form B, no form A or further polymorphic forms unambiguously identified): stable
- conversion of B into A [4]: complete conversion

Compound: Cl.N#Cc1c[nH]c2c(C(=O)N3CCN(CCc4ccc(F)cc4)CC3)cccc12 [EMD281014 form A, 7-{4-[2-(4-fluorophenyl)ethyl]-piperazine-1-carbonyl}-1H-indole-3-carbonitrile, hydrochloride]
- proportion of form B ([3]; cam press, contact time 250 ms, maximum pressing force 6 kN): about 20%
- proportion of form A in the mixture obtained [3, 6]: ~75%
- proportion of form B in the mixture obtained [3, 6]: about 25%
- proportion of form B ([5]; 250 mg in 5 ml MTBE, stirred 14 days at room temperature): about 30 % by weight
- form B obtained in addition to form A ([5]; suspension in MTBE, room temperature, 14 days): about 30%

From US7981897B2, “Crystal form of (3-cyano-1H-Indo1-7-yl)-[4-(4-fluorophenethyl)piperazin-1-yl]methanone, hydrochloride” (Merck Patent GmbH, priority 2004, dated 2011)
